Experimental data: ChEMBL document CHEMBL1134900, “Substituted 3-amino biaryl propionic acids as potent VLA-4 antagonists” (Bioorg Med Chem Lett, 2002)

Tests used:
[1] = Compound was tested for its plasma volume distribution in Sprague Dawley rats; details: rat
[2] = Compound was tested for its plasma half life in Sprague Dawley rats; details: rat
[3] = Compound was tested for its plasma clearance rate in Sprague Dawley rats; details: rat
in vivo = details: rhesus monkey, plasma, iv, 0.75 mg/kg
Description: Compound was tested for its plasma clearance rate in rhesus monkey at a dose of 0.75 mg/kg iv/ 1.5 mg/kg po

Row | Structure (SMILES) | Vd [1] [L/kg] | half-life [2] [min] | clearance [3] [mL/min/kg] | clearance (in vivo) [mL/min/kg]
1 | COc1cccc(F)c1-c1ccc([C@@H](CC(=O)O)NC(=O)[C@]2(C)CCCN2S(=O)(=O)c2cc(Cl)cc(Cl)c2)cc1 | 0.13 | 78 | 2.3 | 
2 | COc1cc(F)ccc1-c1ccc([C@@H](CC(=O)O)NC(=O)[C@@H]2CCCN2S(=O)(=O)c2cc(Cl)cc(Cl)c2)cc1 |  |  | 14.6 | 
3 | COc1cccc(OC(F)(F)F)c1-c1ccc([C@@H](CC(=O)O)NC(=O)[C@]2(C)CCCN2S(=O)(=O)c2cc(Cl)cc(Cl)c2)cc1 | 1.1 | 96 | 24.9 | 
4 | COc1ccc(F)cc1-c1ccc([C@@H](CC(=O)O)NC(=O)[C@]2(C)CCCN2S(=O)(=O)c2cc(Cl)cc(Cl)c2)cc1 | 0.08 | 72 | 2.3 | 
5 | COc1cc(F)cc(-c2ccc([C@@H](CC(=O)O)NC(=O)[C@]3(C)CCCN3S(=O)(=O)c3cc(Cl)cc(Cl)c3)cc2)c1 | 0.12 | 54 | 2.5 | 
6 | COc1cccc(OC)c1-c1ccc([C@@H](CC(=O)O)NC(=O)[C@@H]2CCCN2S(=O)(=O)c2cc(Cl)cc(Cl)c2)cc1 | 1.4 | 108 | 51.6 | 
7 | COc1ccc(F)cc1-c1ccc([C@@H](CC(=O)O)NC(=O)[C@@H]2CCCN2S(=O)(=O)c2cc(Cl)cc(Cl)c2)cc1 | 0.58 | 180 | 13.1 | 
8 | COc1ccccc1-c1ccc([C@@H](CC(=O)O)NC(=O)[C@@H]2CCN2S(=O)(=O)c2cc(Cl)cc(Cl)c2)cc1 | 0.12 | 144 | 5 | 22.1
9 | COc1ccccc1-c1ccc([C@@H](CC(=O)O)NC(=O)[C@H]2CCCN2S(=O)(=O)c2cc(Cl)cc(Cl)c2)cc1 | 0.08 | 78 | 1.1 | 
10 | COc1cccc(F)c1-c1ccc([C@@H](CC(=O)O)NC(=O)[C@@H]2CCCN2S(=O)(=O)c2cc(Cl)cc(Cl)c2)cc1 | 0.19 | 42 | 16.3 | 
11 | COc1ccc([C@@H](CC(=O)O)NC(=O)[C@@H]2CCN2S(=O)(=O)c2cc(Cl)cc(Cl)c2)cc1 | 1.5 | 66 | 22.1 | 
